Earlier results as cited in patent publication US5189064A, “Treatment of cocaine addiction” (Matrix Technologies, Inc., priority 1990, dated 1993).
Read-outs that look alike come from different tables or passages of the source. Square brackets hold non-standard residues; d marks the D form. Ends that are not written are not given here.

Tests used:
[Met]-enkephalin [1] = test system: [Met]-enkephalin
enkephalinases = conditions: rat intestinal mucosa
enkephalinase A = conditions: in vitro, calf brain enzyme
enkephalinase B = conditions: in vitro, calf brain enzyme
carboxypeptidase A = biological target: T1, carboxypeptidase A (Bos taurus, UniProt P00730)
T1 sequence (P00730 111-417 limits assumed): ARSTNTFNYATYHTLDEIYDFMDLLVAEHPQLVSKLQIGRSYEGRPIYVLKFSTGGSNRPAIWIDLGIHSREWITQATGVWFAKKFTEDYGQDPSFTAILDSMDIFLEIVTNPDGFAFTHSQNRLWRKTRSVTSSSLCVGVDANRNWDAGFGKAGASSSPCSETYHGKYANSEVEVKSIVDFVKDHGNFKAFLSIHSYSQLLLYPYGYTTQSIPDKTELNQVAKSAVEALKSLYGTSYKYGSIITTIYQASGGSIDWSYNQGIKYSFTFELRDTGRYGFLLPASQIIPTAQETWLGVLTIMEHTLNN

[Met]-enkephalin [2] = mice
[3] = tryptophan injected into the bloodstream
[4] = infusion, neurological patients with depression and insomnia
healthy men = conditions: tryptophan 50 mg/kg, tyrosine 100 mg/kg, eight healthy men

In the case of `N[C@H](Cc1ccccc1)C(=O)O` [D-phenylalanine], the enkephalinase inhibited (enkephalinase; cortex) is listed as 60%, the enkephalinase inhibited (enkephalinase; hypothalamus) is listed as 80% and the enkephalinase inhibited (enkephalinase; spinal cord) is listed as 84%. The enkephalinase inhibited (enkephalinase; striatum) was 78%, the endorphinase inhibited (endorphinase; cortex) was 18% and the endorphinase inhibited (endorphinase; hypothalamus) was 5%. For the same molecule, the endorphinase inhibited (endorphinase; spinal cord) was 40%, the endorphinase inhibited (endorphinase; striatum) was 10% and the “CNS [Met]-enkephalin level” value ([Met]-enkephalin [1]; six days later) was “remained high”. The “CNS increases of [Met]-enkephalin” value ([Met]-enkephalin [1]; within 90 minutes following DPA injection) was “tripled”, the “degradation of (D-Ala2-D-Leu5) enkephalin (DAPLE) and Tyr-D-Ala-Gly-Phe (TAAGP)” value (enkephalinases) was “significantly reduced degradation” and the “inhibitory activity against enkephalinase A” value (enkephalinase A) was “much less effective”. For the same molecule, the “inhibitory activity against enkephalinase B” value (enkephalinase B) was “much less effective” and the “inhibition of carboxypeptidase A” value (carboxypeptidase A) was “inhibit carboxypeptidase A”.
For `O=C(O)CCc1ccccc1` [hydrocinnamic acid], the “[Met]-enkephalin in the brain” value ([Met]-enkephalin [2]) is given as “increases of [Met]-enkephalin”.
For `N[C@@H](Cc1c[nH]c2ccccc12)C(=O)O` [tryptophan, L-tryptophan], the “level of serotonin in the brain elevated” value [3] is given as “two”, the “level of tryptophan in the brain elevated” value [3] is given as “nine” and the “elevations in cortical tryptophan levels” value [4] is given as “six”. The pain discriminability (healthy men) was “significantly reduced pain discriminibility”.
For `N[C@@H](Cc1ccc(O)cc1)C(=O)O` [tyrosine, L-tyrosine], the pain discriminability (healthy men) is listed as “not”.
In the case of [dF]-Tyr, the “inhibitory activity against enkephalinase A” value (enkephalinase A) is listed as “markedly enhances the inhibitory potency” and the “inhibitory activity against enkephalinase B” value (enkephalinase B) is listed as “markedly enhances the inhibitory potency”.
